Values quoted from earlier work as cited in patent publication US20110190266A1, “5,6,6a,7,8,9-HEXAHYDRO-2H-PYRIDOPHTHALAZINONE INHIBITORS OF POLY(ADP-RIBOSE)POLYMERASE (PARP)” (priority 2010, published 2011).
Like-named read-outs stand apart in the source and are kept apart here.

Experiments:
PARP-1 = PARP-1 (Homo sapiens, UniProt P09874)
[1] = tested on: BRCA2-deficient cell line V-C8; details: BRCA2-deficient V-C8 compared with the BRCA2 wild type control
CAPAN-1 cells = CAPAN-1 cells in DMEM supplemented with FCS (20% v/v), glutamine and antibiotics

Sequence of PARP-1 (P09874 whole entry, species assumed): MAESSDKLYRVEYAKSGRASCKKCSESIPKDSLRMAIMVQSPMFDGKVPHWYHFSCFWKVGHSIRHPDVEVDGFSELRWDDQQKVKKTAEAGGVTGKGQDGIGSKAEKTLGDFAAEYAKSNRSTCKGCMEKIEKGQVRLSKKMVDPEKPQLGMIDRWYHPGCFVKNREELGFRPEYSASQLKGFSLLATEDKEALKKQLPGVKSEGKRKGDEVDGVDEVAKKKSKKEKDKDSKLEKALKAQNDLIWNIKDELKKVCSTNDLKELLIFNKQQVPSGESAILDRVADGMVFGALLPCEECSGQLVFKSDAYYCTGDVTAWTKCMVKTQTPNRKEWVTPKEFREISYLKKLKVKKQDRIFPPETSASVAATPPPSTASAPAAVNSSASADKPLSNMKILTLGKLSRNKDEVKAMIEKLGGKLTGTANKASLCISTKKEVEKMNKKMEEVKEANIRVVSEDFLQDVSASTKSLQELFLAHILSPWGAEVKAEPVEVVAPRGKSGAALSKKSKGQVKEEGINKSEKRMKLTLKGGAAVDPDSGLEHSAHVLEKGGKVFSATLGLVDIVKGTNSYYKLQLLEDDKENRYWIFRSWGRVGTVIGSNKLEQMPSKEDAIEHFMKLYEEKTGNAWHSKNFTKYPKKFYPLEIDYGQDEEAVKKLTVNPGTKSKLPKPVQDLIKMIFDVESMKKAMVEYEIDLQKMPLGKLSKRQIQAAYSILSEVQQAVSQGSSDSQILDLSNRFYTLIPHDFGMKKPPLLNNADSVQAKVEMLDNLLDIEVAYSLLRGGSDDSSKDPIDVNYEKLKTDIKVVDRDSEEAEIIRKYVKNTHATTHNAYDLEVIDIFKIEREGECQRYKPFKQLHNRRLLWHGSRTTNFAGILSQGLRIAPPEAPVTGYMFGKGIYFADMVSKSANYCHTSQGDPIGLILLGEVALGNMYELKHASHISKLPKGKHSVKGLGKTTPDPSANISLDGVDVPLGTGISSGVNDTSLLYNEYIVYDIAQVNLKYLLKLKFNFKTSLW

SMILES	Ki (PARP-1; moderately potent PARP-1 inhibitor) [nM]	sensitivity in clonogenic survival assay [1]	in vivo efficacy, tumor growth (BRCA2-deficient tumors)	sensitivity to PARP inhibition in clonogenic survival assay (CAPAN-1 cells)	Ki (PARP-1; PARP-1 inhibitor) [nM]
Cc1nc2c(O)cccc2c(=O)[nH]1 [NU1025]	50	exhibited sensitivity			
O=C1CCC(=O)N1c1cc(Cc2n[nH]c(=O)c3ccccc23)ccc1F [KU0058684]			in vivo efficacy in blocking the growth of BRCA2-deficient tumors	showing sensitivity	
CN(C)Cc1ccc(-c2nc3cccc4c3n2CCNC4=O)cc1 [AG14361]		exhibited sensitivity			5
